Test results taken from patent publication US20240408086A1, “USE OF LUVADAXISTAT FOR THE TREATMENT OF COGNITIVE IMPAIRMENT” (TAKEDA PHARMACEUTICAL COMPANY LIMITED, priority 2021, published 2024).
Where two headings read alike, the source gives them in different places.

Experiments:
[1] = test system: adult patients with persistent negative symptoms of schizophrenia; assay type: in vivo, human; settings: for PANSS NSFS, LS mean change from baseline to Week 12: placebo −3.1
Excerpt: Compound (I) was orally administered in the form of a tablet once daily for up to 14 weeks. Compound (I) placebo-matching tablets were similarly orally administered once daily for up to 14 weeks. The treatment group remained undisclosed to the participant and study doctor/site personnel during the study unless there was an urgent medical need.
The primary endpoint evaluated was the change in negative symptoms, measured as the 12-week change from baseline in the Positive and Negative Syndrome Scale-Negative Symptom Factor Score (PANSS NSFS).

[2] = test system: scopolamine-induced EBC deficits; settings: preclinical studies; see Example 2 of WO 2015/132608; cited from earlier work
[3] = test system: adult patients with persistent negative symptoms of schizophrenia; assay type: in vivo, human; settings: for SCoRS Interviewer Total Score, Difference from Placebo for Week 12, LS Mean (SE) / SCoRS Interviewer Total Score, Adjusted Change from Baseline to Week 12, LS Mean (SE): MMRM; for SCoRS Interviewer Total Score, Difference from Placebo for Week 12, LS Mean (SE) / SCoRS Interviewer Total Score, Adjusted Change from Baseline to Week 12, LS Mean (SE) / SCoRS Interviewer Total Score, Change from Baseline to Week 12, Mean (SD) / SCoRS Interviewer Total Score, Change from Baseline to Week 12, Median / SCoRS Interviewer Total Score, Week 12, Mean (SD) / SCoRS Interviewer Total Score, Week 12, Median: preliminary analysis
Excerpt: To assess changes in cognitive impairment associated with schizophrenia (CIAS), secondary endpoints included the 12-week change from baseline in the Brief Assessment of Cognition in Schizophrenia (BACS) composite score, a measure of cognition across multiple domains, and the Schizophrenia Cognition Rating Scale (SCORS) score, a measure of day-to-day cognitive functioning requiring input from an adult informant. Secondary endpoints were not corrected for multiplicity.
The SCORS is an interview-based measure of cognitive functioning that was developed to specifically assess aspects of cognitive functioning in participants with schizophrenia. The items assess the 7 cognitive domains of attention, memory, reasoning and problem solving, working memory, processing speed, language functions, and social cognition. The SCORS global total scores is the sum of the 20 items, and it varies from 20 to 80 with 20 being the best outcome and 80 being the worst.

[4] = test system: adult patients with persistent negative symptoms of schizophrenia
Procedure: Additionally, eligible participants were receiving stable antipsychotic treatment at a 2-6 mg daily dose of risperidone equivalents, and were allowed to be treated with a second antipsychotic if it was used as a hypnotic at a subtherapeutic dose (subject to sponsor approval). […] To overcome potential confounding effects, those with depressive and extrapyramidal symptoms were excluded.
Dose selection for this study was based on target occupancy and elevation of D-serine.
The study comprised a 28-day screening period, a 14-day single-blinded placebo run-in period to prospectively evaluate drug adherence and BNSS score stability, and a 12-week double-blinded treatment period (FIG. 5). […] Demographics, baseline characteristics, and efficacy assessments were based on the full analysis set, which included randomized participants who received at least one dose of the study drug during the treatment period (Table 6). The safety analysis set included randomized participants who received at least one dose of the study drug.
Safety endpoints included assessment of treatment-emergent adverse events (TEAEs).

Mouse = assay: Novel object recognition (cognition); assay type: in vivo; design: key: a + sign means efficacious; a − sign means not efficacious
Excerpt: In Table 1, a + sign means efficacious, a − sign means not efficacious, and an empty cell indicates a dose was not tested.

[5] = 50 mg once daily, count (%) of N = 58
[6] = 125 mg once daily, count (%) of N = 56
[7] = 500 mg once daily, count (%) of N = 55

O=c1[nH]nc(CCc2ccc(C(F)(F)F)cc2)cc1O [Compound (I), luvadaxistat]
PANSS NSFS, LS mean change from baseline to Week 12 ([1]; 50 mg once daily, p=0.426 vs placebo): −3.3 | Improvement in PANSS NSFS versus placebo ([1]; 50 mg, 125 mg, or 500 mg at Week 12): no significant improvements | PANSS NSFS, LS mean change from baseline to Week 12 ([1]; 125 mg once daily, p=0.362 vs placebo): −3.4 | PANSS NSFS, LS mean change from baseline to Week 12 ([1]; 500 mg once daily, p=0.808 vs placebo): −2.5 | Reversal of scopolamine-induced EBC deficits [2]: robust effects in reversing scopolamine-induced EBC deficits | SCoRS interviewer total score, effect size versus placebo ([3]; 50 mg once daily, 12 weeks, p=0.011, not corrected for multiplicity): 0.4 | SCoRS Interviewer Total Score, Difference from Placebo for Week 12, LS Mean (SE) ([3]; 50 mg once daily, one-sided unadjusted p 0.007*): −2.4 (0.94) | SCoRS Interviewer Total Score, Adjusted Change from Baseline to Week 12, LS Mean (SE) ([3]; 50 mg once daily): −3.7 (0.77) | SCoRS interviewer total score, 12-week LS mean change from baseline ([3]; 50 mg once daily, placebo −1.6): −3.8 | SCoRS Interviewer Total Score, Change from Baseline to Week 12, Mean (SD) ([3]; 50 mg once daily): −4.0 (5.93) | SCoRS Interviewer Total Score, Change from Baseline to Week 12, Median ([3]; 50 mg once daily): −3.0 | SCoRS Interviewer Total Score, Week 12, Mean (SD) ([3]; 50 mg once daily): 35.5 (10.91) | SCoRS Interviewer Total Score, Week 12, Median ([3]; 50 mg once daily): 32.0 | SCoRS Interviewer Total Score, Difference from Placebo for Week 12, LS Mean (SE) ([3]; 125 mg once daily, one-sided unadjusted p 0.236): −0.7 (0.96) | SCoRS Interviewer Total Score, Adjusted Change from Baseline to Week 12, LS Mean (SE) ([3]; 125 mg once daily): −2.1 (0.77) | SCoRS Interviewer Total Score, Change from Baseline to Week 12, Mean (SD) ([3]; 125 mg once daily): −2.1 (5.89) | SCoRS Interviewer Total Score, Change from Baseline to Week 12, Median ([3]; 125 mg once daily): −2.0 | SCoRS Interviewer Total Score, Week 12, Mean (SD) ([3]; 125 mg once daily): 36.1 (9.69) | SCoRS Interviewer Total Score, Week 12, Median ([3]; 125 mg once daily): 36.5 | SCoRS Interviewer Total Score, Difference from Placebo for Week 12, LS Mean (SE) ([3]; 500 mg once daily, one-sided unadjusted p 0.449): −0.1 (0.98) | SCoRS Interviewer Total Score, Adjusted Change from Baseline to Week 12, LS Mean (SE) ([3]; 500 mg once daily): −1.5 (0.84) | SCoRS Interviewer Total Score, Change from Baseline to Week 12, Mean (SD) ([3]; 500 mg once daily): −2.4 (5.34) | SCoRS Interviewer Total Score, Change from Baseline to Week 12, Median ([3]; 500 mg once daily): −2.0 | SCoRS Interviewer Total Score, Week 12, Mean (SD) ([3]; 500 mg once daily): 39.4 (9.60) | SCoRS Interviewer Total Score, Week 12, Median ([3]; 500 mg once daily): 39.0 | Frequent TEAEs: Headache [4, 5]: 0 | Frequent TEAEs: Increased weight [4, 5]: 2 (3.4) | Frequent TEAEs: Insomnia [4, 5]: 0 | Patients with Mild TEAEs [4, 5]: 10 (17.2) | Patients with Moderate TEAEs [4, 5]: 2 (3.4) | Patients with Severe TEAEs [4, 5]: 1 (1.7) | Patients with any TEAEs [4, 5]: 13 (22.4) | Serious adverse events [4, 5]: 0 | TEAEs leading to study discontinuation [4, 5]: 0 | TEAEs related to study drug [4, 5]: 0 | Deaths ([4]; 50 mg once daily, count of N = 58): 0 | Severe event of chronic cholecystitis, number of participants ([4]; 50 mg once daily, not considered drug related): 1 | Severe schizophrenia (drug-related serious TEAE), number of participants ([4]; 125 mg once daily): one | Frequent TEAEs: Headache [4, 6]: 5 (8.9) | Frequent TEAEs: Increased weight [4, 6]: 0 | Frequent TEAEs: Insomnia [4, 6]: 2 (3.6) | Patients with Mild TEAEs [4, 6]: 13 (23.2) | Patients with Moderate TEAEs [4, 6]: 3 (5.4) | Patients with Severe TEAEs [4, 6]: 1 (1.8) | Patients with any TEAEs [4, 6]: 17 (30.4) | Serious adverse events [4, 6]: 1 (1.8) | TEAEs leading to study discontinuation [4, 6]: 1 (1.8) | TEAEs related to study drug [4, 6]: 4 (7.1) | Deaths ([4]; 125 mg once daily, count of N = 56): 0 | Frequent TEAEs: Headache [4, 7]: 2 (3.6) | Frequent TEAEs: Increased weight [4, 7]: 0 | Frequent TEAEs: Insomnia [4, 7]: 2 (3.6) | Patients with Mild TEAEs [4, 7]: 8 (14.5) | Patients with Moderate TEAEs [4, 7]: 8 (14.5) | Patients with Severe TEAEs [4, 7]: 0 | Patients with any TEAEs [4, 7]: 16 (29.1) | Serious adverse events [4, 7]: 0 | TEAEs leading to study discontinuation [4, 7]: 1 (1.8) | TEAEs related to study drug [4, 7]: 7 (12.7) | Deaths ([4]; 500 mg once daily, count of N = 55): 0 | Novel object recognition (cognition) (Mouse; 14-Day Once Daily (QD), 0.001 mg/kg): − | Novel object recognition (cognition) (Mouse; 14-Day Once Daily (QD), 0.003 mg/kg): + | Novel object recognition (cognition) (Mouse; 14-Day Once Daily (QD), 0.01 mg/kg): + | Novel object recognition (cognition) (Mouse; 14-Day Once Daily (QD), 0.03 mg/kg): + | Novel object recognition (cognition) (Mouse; 14-Day Once Daily (QD), 0.1 mg/kg): + | Novel object recognition (cognition) (Mouse; 14-Day Once Daily (QD), 0.3 mg/kg): − | Novel object recognition (cognition) (Mouse; 14-Day Once Daily (QD), 1 mg/kg): − | Novel object recognition (cognition) (Mouse; 14-Day Once Daily (QD), 3 mg/kg): − | Novel object recognition (cognition) (Mouse; Single Dose, 0.1 mg/kg): − | Novel object recognition (cognition) (Mouse; Single Dose, 0.3 mg/kg): + | Novel object recognition (cognition) (Mouse; Single Dose, 1 mg/kg): + | Novel object recognition (cognition) (Mouse; Single Dose, 3 mg/kg): + | Novel object recognition (cognition) (Mouse; Single Dose, 10 mg/kg): +
